The numbers were not newly measured in US11576862B2, “Methods and compositions for preparing a silk microsphere” (Trustees of Tufts College, priority 2012, dated 2023), which cites them from elsewhere.

Where a name gives a salt, the structure may show the parent alone.

Take `CC12CC3CC(C)(C1)CC(N)(C3)C2` [Memantine hydrochloride, 3,5-dimethyltricyclo[3.3.1.1]decan-1amine]: the water solubility is 50 mg/mL.
